In patent US20250136619A1, “HETEROBIFUNCTIONAL COMPOUNDS AND THEIR USE IN TREATING DISEASE” (HALDA THERAPEUTICS OPCO, INC., priority 2021, published 2025):
Where two headings read alike, the source gives them in different places.

Tests used:
HEK293 cells = assay: Cellular growth inhibition assay (CellTiter-Glo), HEK293 cells; format: cell-based; conditions: read-out: CTG HEK293 GI50
Experimental: (§1) HEK293 and HeLa cells were cultured in DMEM medium supplemented with 10% fetal bovine serum and 1% Penn/Strep. Cells were seeded in white 384-well plates at 500 cells/well in […] complete medium. Following seeding, plates were spun at 300×g for three minutes and cultured at 37° C. with 5% CO2 in a humidified tissue culture incubator.
(§2) After 24 hours, compounds were titrated in 100% DMSO and diluted in complete cell culture medium. […] of compound/media mixture was added to cells to bring total volume in well to […]. DMSO alone was used as a negative control. Plates were then spun at 300×g for three minutes and stored at 37° C. with 5% CO2 for three days.
(§3) On Day 0 and Day 3 of compound treatment, cell viability was quantified with CellTiter-Glo 2.0 reagent (Promega). After equilibrating microplates at room temperature for 30 minutes, 25 μL CellTiter-Glo 2.0 reagent was dispensed into each well to bring total volume to […]. Plates were mixed on shaker for 2 minutes at 500 rpm, followed by a 10-minute incubation at room temperature. Following a quick spin, luminescence readings were measured with an En Vision Plate Reader. Data was normalized to DMSO treated Day 0 and Day 3 readings. A four-parameter non-linear regression curve fit was applied to dose-response data in GraphPad Prism data analysis software to determine the half maximal growth inhibitory concentration (GI50) for each compound.

HeLa cells = assay: Cellular growth inhibition assay (CellTiter-Glo), HeLa cells; format: cell-based; conditions: read-out: CTG HELA GI50
Experimental: as §1, §2, §3

BTK = BTK (Homo sapiens (Human), UniProt Q06187); assay: KdELECT assay for binding affinity to BTK
Experimental: (§4) Compounds were tested using a KdELECT assay. Kinase-tagged T7 phage strains were prepared in an E. coli host derived from the BL21 strain. E. coli were grown to log-phase and infected with T7 phage and incubated with shaking at 32° C. until lysis. The lysates were centrifuged and filtered to remove cell debris. The remaining kinases were produced in HEK-293 cells and subsequently tagged with DNA for qPCR detection. Streptavidin-coated magnetic beads were treated with biotinylated small molecule ligands for 30 minutes at room temperature to generate affinity resins for kinase assays. The liganded beads were blocked with excess biotin and washed with blocking buffer (SeaBlock (Pierce), 1% BSA, 0.05% Tween 20, 1 mM DTT) to remove unbound ligand and to reduce non-specific binding. Binding reactions were assembled by combining kinases, liganded affinity beads, and test compounds in 1× binding buffer (20% SeaBlock, 0.17×PBS, 0.05% Tween 20, 6 mM DTT). Test compounds were prepared as 111X stocks in 100% DMSO. Kd values were determined using an 11-point 3-fold compound dilution series with three DMSO control points. All compounds for Kd measurements are distributed by acoustic transfer (non-contact dispensing) in 100% DMSO. The compounds were then diluted directly into the assays such that the final concentration of DMSO was 0.9%. All reactions performed in polypropylene 384-well plate. Each was a final volume of 0.02 mL. The assay plates were incubated at room temperature with shaking for 1 hour and the affinity beads were washed with wash buffer (1×PBS, 0.05% Tween 20). The beads were then re-suspended in elution buffer (1×PBS, 0.05% Tween 20, 0.5 μM nonbiotinylated affinity ligand) and incubated at room temperature with shaking for 30 minutes. The kinase concentration in the eluates was measured by qPCR.

CDK9 = CDK9 (Homo sapiens (Human), UniProt P50750); assay: KdELECT assay for binding affinity to CDK9
Experimental: as §4, with “KdELECT.” for “KdELECT assay.”, “1×binding” for “1× binding”

[1] = Homo sapiens, 72 h, HEK293 cells, three days of compound treatment, CellTiter-Glo 2.0
[2] = Homo sapiens, 72 h, HeLa cells, three days of compound treatment, CellTiter-Glo 2.0

Chain of CDK9 (P50750 whole entry): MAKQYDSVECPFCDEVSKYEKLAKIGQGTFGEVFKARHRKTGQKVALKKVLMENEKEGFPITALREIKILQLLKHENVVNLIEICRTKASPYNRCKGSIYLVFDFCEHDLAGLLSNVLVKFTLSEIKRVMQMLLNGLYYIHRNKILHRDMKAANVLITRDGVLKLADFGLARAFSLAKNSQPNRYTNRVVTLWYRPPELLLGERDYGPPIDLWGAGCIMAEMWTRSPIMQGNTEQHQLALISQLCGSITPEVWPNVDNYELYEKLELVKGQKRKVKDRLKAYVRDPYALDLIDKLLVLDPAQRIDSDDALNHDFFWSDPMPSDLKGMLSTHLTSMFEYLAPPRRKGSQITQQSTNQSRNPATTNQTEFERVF
Chain of BTK (Q06187 whole entry): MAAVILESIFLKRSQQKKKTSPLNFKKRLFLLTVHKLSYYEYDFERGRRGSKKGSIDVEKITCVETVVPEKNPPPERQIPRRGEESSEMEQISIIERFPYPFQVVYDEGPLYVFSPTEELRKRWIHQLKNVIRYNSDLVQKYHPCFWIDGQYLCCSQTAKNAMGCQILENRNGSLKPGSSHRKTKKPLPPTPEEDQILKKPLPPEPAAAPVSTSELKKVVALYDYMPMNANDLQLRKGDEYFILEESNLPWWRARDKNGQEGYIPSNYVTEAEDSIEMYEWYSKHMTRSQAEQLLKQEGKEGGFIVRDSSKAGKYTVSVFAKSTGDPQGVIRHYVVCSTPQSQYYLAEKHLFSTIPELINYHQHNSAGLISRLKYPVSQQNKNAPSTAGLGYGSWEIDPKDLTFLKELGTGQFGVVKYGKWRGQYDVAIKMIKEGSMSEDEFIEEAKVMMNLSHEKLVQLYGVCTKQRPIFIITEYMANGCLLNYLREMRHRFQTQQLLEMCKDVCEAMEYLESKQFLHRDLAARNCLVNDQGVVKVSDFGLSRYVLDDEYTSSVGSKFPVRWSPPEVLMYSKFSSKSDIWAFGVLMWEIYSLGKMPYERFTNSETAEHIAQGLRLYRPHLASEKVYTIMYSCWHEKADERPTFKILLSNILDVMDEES

In the case of `CCc1cnn2c(NCc3ccc(OCCOCCOCCOCCOCCOCCOCCOCCOCCN(C)C/C=C/C(=O)N4CCC[C@@H](n5nc(-c6ccc(Oc7ccccc7)cc6)c6c(N)ncnc65)C4)nc3)cc(N3CCCC[C@H]3CCO)nc12` [Compound I-48], the GI50 (HEK293 cells; [1]) is reported as 1500 to 5000 nM, the GI50 (HeLa cells; [2]) is reported as 1500 to 5000 nM and the Kd (BTK) is reported as under 50 nM.
Work on `CN(OCCOCCOCCOCCOCCOCCOCCOC/C=C/C(=O)N1CCC[C@@H](n2nc(-c3ccc(Oc4ccccc4)cc3)c3c(N)ncnc32)C1)C(=O)N1N=C(c2cc(F)ccc2F)SC1(CCCN)c1ccccc1` (stereo partly shown) [Compound I-51] yielded a GI50 (HEK293 cells; [1]) of 1500 to 5000 nM, a GI50 (HeLa cells; [2]) of 500 to 1500 nM and a Kd (BTK) of under 50 nM.
Work on `C=CC(=O)N1CCN([C@@H](CC2CC2)c2ccc([C@H](C)Nc3ncc4c(n3)N(CCOCCOCCOc3ccc(CNc5cc(N6CCCC[C@H]6CCO)nc6c(CC)cnn56)cn3)C(=O)OC4)cc2)CC1` [Compound I-55] yielded a Kd (CDK9) of 50 to 500 nM.
For `C=CC(=O)N1CCN([C@@H](CC2CC2)c2ccc([C@H](C)Nc3ncc4c(n3)N(CCOCCOCCn3cc(CNc5cc(N6CCCC[C@H]6CCO)nc6c(CC)cnn56)ccc3=O)C(=O)OC4)cc2)CC1` [Compound I-56], the Kd (CDK9) was 50 to 500 nM.
`CCc1cnn2c(NCc3ccc(CCOCCOCCN(C)C/C=C/C(=O)N4CCC[C@@H](n5nc(-c6ccc(Oc7ccccc7)cc6)c6c(N)ncnc65)C4)nc3)cc(N3CCCC[C@H]3CCO)nc12` [Compound I-67, (E)-1-((R)-3-(4-amino-3-(4-phenoxyphenyl)-1H-pyrazolo[3,4-d]pyrimidin-1-yl)piperidin-1-yl)-4-((2-(2-(2-(5-(((3-ethyl-5-((S)-2-(2-hydroxyethyl)piperidin-1-yl)pyrazolo[1,5-a]pyrimidin-7-yl)amino)methyl)pyridin-2-yl)ethoxy)ethoxy)ethyl)(methyl)amino)but-2-en-1-one] was tested, and the Kd (CDK9) was under 50 nM and the Kd (BTK) was under 50 nM.
In the case of `C=CC(=O)N1CCN([C@@H](CC2CC2)c2ccc([C@H](C)Nc3ncc4c(n3)N(CCOCCOCCOCCOCCOCCOCCOc3ccc(CNc5cc(N6CCCC[C@H]6CCO)nc6c(CC)cnn56)cn3)C(=O)OC4)cc2)CC1` [Compound I-83], the Kd (CDK9) is reported as under 50 nM.
In the case of `C=CC(=O)N1CCN([C@@H](CC2CC2)c2ccc([C@H](C)Nc3ncc4c(n3)N(CCOCCOCCOCCOCCOCCOCCNS(=O)(=O)c3ccc(Nc5ncc(Br)c(Nc6cccc(F)c6C(N)=O)n5)cc3)C(=O)OC4)cc2)CC1` [Compound I-86, 2-[[5-bromo-2-[4-[2-[2-[2-[2-[2-[2-[2-[7-[[(1S)-1-[4-[(1S)-2-cyclopropyl-1-(4-prop-2-enoylpiperazin-1-yl)ethyl]phenyl]ethyl]amino]-2-oxo-4H-pyrimido[4,5-d][1,3]oxazin-1-yl]ethoxy]ethoxy]ethoxy]ethoxy]ethoxy]ethoxy]ethylsulfamoyl]anilino]pyrimidin-4-yl]amino]-6-fluoro-benzamide], the Kd (CDK9) is reported as 500 to 2500 nM.
In the case of `C=CC(=O)N1CCN([C@@H](CC2CC2)c2ccc([C@H](C)Nc3ncc4c(n3)N(CCOCCOCCOCCOCCOCCOCCn3cc(CNc5cc(N6CCCC[C@H]6CCO)nc6c(CC)cnn56)ccc3=O)C(=O)OC4)cc2)CC1` [Compound I-87], the Kd (CDK9) is reported as under 50 nM.
`CCc1cnn2c(NCc3ccc(OCCOCCOCCNS(=O)(=O)c4cc(F)cc(N(C(=O)[C@@H]5CCC(=O)N5c5cc(C#N)ccn5)C(C(=O)NC5CC(F)(F)C5)c5ccccc5Cl)c4)nc3)cc(N3CCCC[C@H]3CCO)nc12` (stereo partly shown) [Compound I-92] gave a Kd (CDK9) of 500 to 2500 nM, a GI50 (HEK293 cells; HEK293 cells, three days of compound treatment, CellTiter-Glo 2.0) of under 500 nM and a GI50 (HeLa cells; HeLa cells, three days of compound treatment, CellTiter-Glo 2.0) of under 500 nM.
For `CCc1cnn2c(NCc3ccc(=O)n(CCOCCOCCNS(=O)(=O)c4cc(F)cc(N(C(=O)[C@@H]5CCC(=O)N5c5cc(C#N)ccn5)C(C(=O)NC5CC(F)(F)C5)c5ccccc5Cl)c4)c3)cc(N3CCCC[C@H]3CCO)nc12` (stereo partly drawn) [Compound I-93, (2S)—N-[1-(2-chlorophenyl)-2-[(3,3-difluorocyclobutyl)amino]-2-oxo-ethyl]-1-(4-cyano-2-pyridyl)-N-[3-[2-[2-[2-[5-[ [[3-ethyl-5-[(2S)-2-(2-hydroxyethyl)-1-piperidyl]pyrazolo[1,5-a]pyrimidin-7-yl]amino]methyl]-2-oxo-1-pyridyl]ethoxy]ethoxy]ethylsulfamoyl]-5-fluoro-phenyl]-5-oxo-pyrrolidine-2-carboxamide], the Kd (CDK9) was 500 to 2500 nM, the GI50 (HEK293 cells; [1]) was over 5000 nM and the GI50 (HeLa cells; [2]) was 1500 to 5000 nM.
`CCc1cnn2c(NCc3ccc(OCC(=O)N4CC(=O)N(c5cc(C#N)ccn5)[C@H](C(=O)N(c5cc(F)cc(F)c5)[C@H](C(=O)NC5CC(F)(F)C5)c5ccccc5Cl)C4)nc3)cc(N3CCCC[C@H]3CCO)nc12` [Compound I-96, (2S)—N-[(1S)-1-(2-chlorophenyl)-2-[(3,3-difluorocyclobutyl)amino]-2-oxo-ethyl]-1-(4-cyano-2-pyridyl)-N-(3,5-difluorophenyl)-4-[2-[[5-[[[3-ethyl-5-[(2S)-2-(2-hydroxyethyl)-1-piperidyl]pyrazolo[1,5-a]pyrimidin-7-yl]amino]methyl]-2-pyridyl]oxy]acetyl]-6-oxo-piperazine-2-carboxamide] was tested, and the Kd (CDK9) was 50 to 500 nM, the GI50 (HEK293 cells; [1]) was under 500 nM and the GI50 (HeLa cells; [2]) was under 500 nM.
With `CCc1cnn2c(NCc3ccc(OCCOCCOCC(=O)N4CC(=O)N(c5cc(C#N)ccn5)[C@H](C(=O)N(c5cc(F)cc(F)c5)[C@H](C(=O)NC5CC(F)(F)C5)c5ccccc5Cl)C4)nc3)cc(N3CCCC[C@H]3CCO)nc12` [Compound I-97, (2S)—N-[(1S)-1-(2-chlorophenyl)-2-[(3,3-difluorocyclobutyl)amino]-2-oxo-ethyl]-1-(4-cyano-2-pyridyl)-N-(3,5-difluorophenyl)-4-[2-[2-[2-[[5-[[[3-ethyl-5-[(2S)-2-(2-hydroxyethyl)-1-piperidyl]pyrazolo[1,5-a]pyrimidin-7-yl]amino]methyl]-2-pyridyl]oxy]ethoxy]ethoxy]acetyl]-6-oxo-piperazine-2-carboxamide] the Kd (CDK9) was 50 to 500 nM, the GI50 (HEK293 cells; Homo sapiens, HEK293, 72 h) was under 500 nM and the GI50 (HeLa cells; Homo sapiens, HeLa, 72 h) was under 500 nM.
Compound `CCc1cnn2c(NCc3ccc(OCCOCCOCCOCCOCC(=O)N4CC(=O)N(c5cc(C#N)ccn5)[C@H](C(=O)N(c5cc(F)cc(F)c5)C(C(=O)NC5CC(F)(F)C5)c5ccccc5Cl)C4)nc3)cc(N3CCCC[C@H]3CCO)nc12` (stereo partly drawn) [Compound I-98, (2S)—N-[1-(2-chlorophenyl)-2-[(3,3-difluorocyclobutyl)amino]-2-oxo-ethyl]-1-(4-cyano-2-pyridyl)-N-(3,5-difluorophenyl)-4-[2-[2-[2-[2-[2-[[5-[[[3-ethyl-5-[(2S)-2-(2-hydroxyethyl)-1-piperidyl]pyrazolo[1,5-a]pyrimidin-7-yl]amino]methyl]-2-pyridyl]oxy]ethoxy]ethoxy]ethoxy]ethoxy]acetyl]-6-oxo-piperazine-2-carboxamide] has a Kd (CDK9) of 50 to 500 nM, a GI50 (HEK293 cells; [1]) of under 500 nM and a GI50 (HeLa cells; [2]) of under 500 nM.
